Assay results published in US9233933B2, “4,4-disubstituted-1,4-dihydropyrimidines and the use thereof as medicaments for the treatment of hepatitis B” (priority 2012, dated 2016).
Structures can show the parent of a compound that is named as a salt. Where two headings read alike, the source gives them in different places.

Experiments:
[1] = Cytotoxicity in HepG2 cells using CellTiter-Blue, same incubation period as HepG2.2.15 assay; format: cell-based; details: human
Description: Cytotoxicity of the compounds was tested in HepG2 cells using CellTiter-Blue, with the same incubation period and dose range as in the HepG2.2.15 assay.

HBV [2] = test: anti-HBV activity in stable transfected HepG2.2.15 cell line, HBV DNA from secreted virions by realtime PCR; format: cell-based, Hepatitis B virus; details: read-out: HBV-HepG2 2.15 EC50
HBV [3] = test: anti HBV activity in HepG2.117 cell line (Tet-off, inducibly HBV producing), intracellular HBV DNA by realtime PCR; format: cell-based, Hepatitis B virus; details: read-out: HepG2 117 EC50
[4] = Cytotoxicity in HepG2 cells incubated 4 days, Resazurin assay; details: human, HepG2 4 days CC50, HepG2 cells
in vitro = details: human, HepG2 4 days CC50
[5] = HepG2 cells, 6 days, CellTiter-Blue, read-out: HepG2 6 days CC50
[6] = HepG2.2.15 cells, 6 days of treatment, secreted virion HBV DNA
[7] = Hepatitis B virus, HepG2.117, 72 h, HepG2.117 cells, 3 days of treatment, intracellular HBV DNA
[8] = Hepatitis B virus, HepG2.2.15, 144 h, HepG2.2.15 cells, 6 days of treatment, secreted virion HBV DNA
[9] = HepG2.117 cells, 3 days of treatment, intracellular HBV DNA

Structure (SMILES) | CC50 at 6 days [1, 5] [µM] | EC50 (HBV [3]; [7]) [µM] | CC50 at 4 days [4] [µM] | EC50 (HBV [2]; [8]) [µM] | CC50 at 4 days (in vitro) [µM] | also measured
CCOC(=O)C1=C(CN2CCOCC2)NC(c2ccccn2)=NC1(C)c1ccc(F)cc1 (racemic) [Compound 4] | 51.1 | 0.66 | > 25 |  |  | EC50 (HBV [2]; [6]): 1.92 µM
N#CC1=C(CN2CCOCC2)NC(c2ccccn2)=NC12CCCc1cc(F)ccc12 (racemic) [Compound 60] | > 100 | 2.5 | > 25 | 2.83 |  | 
COC(=O)C1=C(CN2CCOCC2)NC(c2ccccn2)=NC12CCc1c(F)cccc12 (racemic) [Compound 66] |  | 0.17 |  | 0.207 | > 25 | CC50 at 6 days ([1]; HepG2 6 days CC50): 89.3 µM
COC(=O)C1=C(C)NC(c2nccs2)=NC12C(F)=C(F)c1cc(F)ccc12 (racemic) [Compound 166] |  | 14.2 |  | 0.24 | > 25 | 
COC(=O)C1=C(C)NC(c2nccs2)=NC12C(F)=Cc1c2ccc(F)c1F (racemic) [Compound 174] |  | 13.4 |  |  | > 25 | 
COC(=O)C1=C(CN2CCOCC2)NC(c2ccccn2)=N[C@@]12c1ccc(F)cc1C[C@H]2F (racemic) [Compound 175] |  | 0.146 |  | < 0.195 | > 25 | 
N#CC1=C(CN2CCOCC2)NC(c2ccccn2)=NC12CCCc1cc(F)ccc12 (single isomer, unassigned) [Compound 60a] | > 100 |  | > 100 |  |  | EC50 (HBV [2]; [6]): > 100 µM; EC50 (HBV [3]; [9]): > 100 µM
COC(=O)C1=C(CN2CCOCC2)NC(c2ccccn2)=NC12CCc1c(F)cccc12 (single isomer, unassigned) [Compound 66a] |  |  |  |  | > 100 | CC50 at 6 days ([1]; HepG2 6 days CC50): > 100 µM; EC50 (HBV [2]; [6]): < 0.391 µM; EC50 (HBV [3]; [9]): 0.066 µM
COC(=O)C1=C(CN2CCOCC2)NC(c2ccccn2)=NC12CCc1ccc(F)cc12 (single isomer, unassigned) [Compound 96a] |  |  |  |  | > 100 | CC50 at 6 days ([1]; HepG2 6 days CC50): > 100 µM; EC50 (HBV [2]; [6]): 0.65 µM; EC50 (HBV [3]; [9]): 0.3 µM
COC(=O)C1=C(C)NC(c2nccs2)=NC12C(F)=C(F)c1cc(F)ccc12 (single isomer, unassigned) [Compound 166a] |  | > 25 |  |  | > 25 | EC50 (HBV [2]; [6]): > 50 µM
COC(=O)C1=C(CN2CCOCC2)NC(c2ccccn2)=NC12c1ccc(F)cc1C(F)C2(F)F (single isomer, unassigned) [Compound 168A] |  |  |  | 9.64 | > 25 | EC50 (HBV [3]; [9]): 3.51 µM
COC(=O)C1=C(C)NC(c2nccs2)=NC12C(F)=Cc1c2ccc(F)c1F (single isomer, unassigned) [Compound 174a] |  |  |  |  | > 25 | EC50 (HBV [3]; [9]): 8.97 µM
COC(=O)C1=C(CN2CCOCC2)NC(c2ccccn2)=NC12CC(=O)c1cc(F)ccc12 (stereo not drawn) [139 •TFA] |  | 0.707 |  | 0.99 | > 25 | 
COC(=O)C1=C(CN2CCOCC2)NC(c2ccccn2)=NC1(C)c1ccc(F)cc1 (stereo not drawn) [Compound 2] | > 100 | 0.25 | > 50 | 0.669 |  | 
CCOC(=O)C1=C(CN2CCSCC2)NC(c2ccccn2)=NC1(C)c1ccc(F)cc1 (stereo not drawn) [Compound 8] | 54.3 | 3.3 | > 50 | 14.8 |  | 
CCOC(=O)C1=C(C(F)(F)F)NC(c2ccccn2)=NC1(C)c1ccc(F)cc1 (stereo not drawn) [Compound 10] | > 10 | > 10 | > 10 | > 10 |  | 
COC(=O)C1=C(CN2CCOCC2)NC(c2ccccn2)=NC1(C)c1ccccc1Cl (stereo not drawn) [Compound 13] | > 100 | 3.9 | > 100 | 9.34 |  | 
CCOC(=O)C1=C(C)NC(c2ccccn2)=NC1(C)c1ccc(F)c(Cl)c1 (stereo not drawn) [Compound 17] | 39.9 | 21 | > 25 | > 50 |  | 
CCOC(=O)C1=C(CN2CCOCC2)NC(c2ccccn2)=NC1(C)c1ccc(F)c(Cl)c1 (stereo not drawn) [Compound 18] | 36.5 | 1.6 | > 50 | 3.92 |  | 

Structure (SMILES) | CC50 at 6 days [1, 5] [µM] | EC50 (HBV [3]; [7]) [µM] | CC50 at 4 days [4] [µM] | EC50 (HBV [2]; [8]) [µM] | CC50 at 4 days (in vitro) [µM] | also measured
CCOC(=O)C1=C(CN2CCOCC2)NC(c2ncc(F)cc2F)=NC1(C)c1ccc(F)cc1 (stereo not drawn) [Compound 24] | 37.9 | 0.16 | > 25 | 0.319 |  | 
COC(=O)C1=C(CN2CCOCC2)NC(c2ncc(F)cc2F)=NC1(C)c1cc(F)cc(Cl)c1 (stereo not drawn) [Compound 27] | > 100 | 0.63 | > 25 | 1.83 |  | 
COC(=O)C1=C(CN2CCOCC2)NC(c2ccccn2)=NC1(C)c1cc(F)cc(Cl)c1 (stereo not drawn) [Compound 29] | 47.4 | 3 | > 25 | 6.32 |  | 
COC(=O)C1=C(CN2CCOCC2)NC(c2ccccn2)=NC1(C)c1cccc(F)c1 (stereo not drawn) [Compound 30] | > 100 | 0.29 | > 25 | 0.941 |  | 
COC(=O)C1=C(C)NC(c2ccccn2)=NC1(C)c1cccc(F)c1 (stereo not drawn) [Compound 31] | > 100 |  | > 50 |  |  | EC50 (HBV [2]; Hepatitis B virus, HepG2.2.15, 144 h): 72.4 µM; EC50 (HBV [3]; Hepatitis B virus, HepG2.117, 72 h): 40.6 µM
CCOC(=O)C1=C(CN2CCOCC2)NC(c2ccccn2)=NC1(C)c1ccc(F)cc1Cl (stereo not drawn) [Compound 41] | > 50 | 4.5 | > 25 | 7.39 |  | 
CCOC(=O)C1=C(CN2CCOCC2)NC(c2ccccn2)=NC1(C)c1ccc(F)cc1F (stereo not drawn) [Compound 42] | 57.7 | 1.29 | > 50 | 3.07 |  | 
CC1(C)CCC2(N=C(c3ccccn3)NC(CN3CCOCC3)=C2C#N)c2ccccc21 (stereo not drawn) [Compound 57] | 87.4 | > 25 | > 25 | > 100 |  | 
N#CC1=C(CN2CCOCC2)NC(c2ccccn2)=NC12CCCc1ccc(F)cc12 (stereo not drawn) [Compound 58] | > 100 | > 25 | > 25 | > 100 |  | 
N#CC1=C(CN2CCOCC2)NC(c2ccccn2)=NC12CCc1ccccc12 (stereo not drawn) [Compound 76] | > 100 | 3.65 | > 100 | 8.48 |  | 
COC(=O)C1=C(C)NC(c2ncc(F)cc2F)=NC12CCCc1cc(F)ccc12 (stereo not drawn) [Compound 80] |  | 25.1 |  |  | > 50 | CC50 at 6 days ([1]; HepG2 6 days CC50): 51.1 µM
COC(=O)C1=C(C)NC(c2ncc(F)cc2F)=NC12C(=O)Nc1cc(F)ccc12 (stereo not drawn) [Compound 123] |  | > 25 |  | > 100 | > 25 | 
COC(=O)C1=C(C)NC(c2ncc(F)cc2F)=NC1(C)c1ccc(F)cc1 (stereo not drawn) [Compound 128] | 63.8 | 2.47 | > 50 | 9.1 |  | 
COC(=O)C1=C(CN2CCOCC2)NC(c2ccccn2)=NC12CCc1cc(F)ccc12 (stereo not drawn) [Compound 143] |  | 0.222 |  |  | > 25 | 
COC(=O)C1=C(CN2CCOCC2)NC(c2ccccn2)=NC12CC(O)c1cc(F)ccc12 (stereo not drawn) [Compound 144] |  | 4.94 |  |  | > 10 | 
COC(=O)C1=C(CN2CCOCC2)NC(c2ccccn2)=NC12C=Cc1cc(F)ccc12 (stereo not drawn) [Compound 145] |  | 0.62 |  | 0.36 | > 25 | 
COC(=O)C1=C(CN2CCOCC2)NC(c2ccccn2)=NC12CC(C)c1cc(F)ccc12 (stereo not drawn) [Compound 146] |  | 2.62 |  | 1.36 | > 25 | 
COC(=O)C1=C(CN2CCOCC2)NC(c2ccccn2)=NC12C(F)=C(F)c1cc(F)ccc12 (stereo not drawn) [Compound 169] |  | 0.137 |  |  | > 25 | 
